{"source": "patent US20220257595A1", "about": "“MACITENTAN FOR USE IN TREATING PORTOPULMONARY HYPERTENSION” (ACTELION PHARMACEUTICALS LTD, priority 2019, published 2022)", "key": {"[1]": {"experiment": "PORTICO PK substudy: steady-state plasma macitentan and ACT-132577", "assay_type": "in vivo, human", "experimental": "It was planned to enroll at least 20 patients who were on steady-state treatment with macitentan (i.e., at least 4 weeks) into the PK substudy. The substudy was conducted in consenting patients from all centers across all regions who agreed to participate. The substudy consisted of the following periods:\nPK assessments period: PK assessments were to be performed after OL study treatment had been taken for at least 4 weeks. The substudy comprised two visits (Day 1: Enrollment and Day 2: Conclusion). See, FIG. 2. Subject eligibility was first checked on Day 1 of the PK substudy prior to the start of assessments.\nPK substudy: On Day 1 of the PK substudy, the study treatment was required to be taken directly after the pre-dose blood sample. On Day 2 of the PK substudy, study treatment was required to be taken after the collection of the last PK blood sample (24 hours post Day 1 dose).\nF3. Pharmacokinetic Endpoints for Macitentan and its Active Metabolite ACT-132577 • The area under the plasma concentration-time curve during one dosing interval (AUCt). • Maximum plasma concentration (Cmax) during a dosing interval. • The time to reach maximum plasma concentration (tmax) during a dosing interval.\n(i) Timing for sampling: For the PK assessment, blood samples were drawn at the following time points: • PK substudy Day 1: Immediately before study treatment administration in the morning (pre-dose) and 1 h, 3 h, 5 h, 6 h, 7 h, 8 h, 9 h, 10 h, 12 h, and 14 h post-dose. • PK substudy Day 2: 24 h post-dose.\n(iii) Bioanalysis: A validated liquid chromatography coupled to mass spectrometry method was used for determining the concentrations of macitentan and its metabolite ACT-132577 in plasma. The limit of quantification (LOQ) for both analytes was 1 ng/mL.\nThe measured individual plasma concentrations of macitentan and its metabolite ACT-132577 were used to directly obtain Cmax and tmax. AUCT was calculated according to the linear trapezoidal rule using the measured concentration-time values above the LOQ during one dosing interval. The PK variables were calculated on the basis of the real (actual) blood sampling time points. For mean value calculations, all values below the LOQ (below the limit of quantification (BLQ) values) were set to zero if ≤50% of the values at a given time point were BLQ. If >50% of the values at a given time point were BLQ, no mean value was calculated. Mean concentration-time profiles were generated using these criteria. The individual and mean plasma concentration-time profiles were plotted on a linear scale. The derived PK variables for macitentan and ACT-132577 (AUCT, Cmax, tmax) are listed by patient. Plasma concentrations per time point were summarized using arithmetic mean, minimum, median, maximum, standard deviation (SD), standard error (SE), and two-sided 95% confidence interval of the mean. […] (*For tmax the geometric mean and its 95% confidence interval were not calculated)."}, "patients with PoPH": {"test_system": "patients with PoPH", "experiment": "PORTICO safety: vital signs, body weight, BMI", "conditions": "in vivo", "excerpt": "For the evaluation of treatment-emergent safety endpoints in the DB phase, the observation period for each individual subject started at the time of the first administration of macitentan or placebo and ended with the start of OL treatment or 30 days after DB treatment discontinuation (whichever occurred first). The safety variables listed below apply to the DB treatment-emergent period and the macitentan treatment-emergent period. The DB treatment-emergent period was defined as the period from the DB treatment start date up to the EOT-DB+30 days or to the EOT-DB for patients entering OL. The macitentan treatment-emergent period was defined as the period from the first intake of macitentan up to end of macitentan treatment (EOMT)+30 days. EOMT was defined as EOT-DB (for patient who received macitentan only in the DB period) or EOT-OL when applicable. […]"}, "[2]": {"conditions": "Phase 1, chronic hepatic impairment, varying grades of liver disease severity; cited from earlier work"}, "[3]": {"conditions": "prior nonclinical and clinical studies; cited from earlier work"}}, "note": "“Also recorded” adds a separate entry of the source."}
{"compound": "CCCNS(=O)(=O)Nc1ncnc(OCCOc2ncc(Br)cn2)c1-c1ccc(Br)cc1", "note": "[macitentan, N-[5-(4-Bromophenyl)-6-[2-[(5-bromo-2-pyrimidinyl)oxy]ethoxy]-4-pyrimidinyl]-N′-propylsulfamide]", "values": [{"measurement": "Plasma exposure in PoPH patients compared with other forms of PAH / other macitentan studies", "setting": "[1]", "value": "consistent between PoPH patients and patients with other forms of PAH; also recorded: comparable between patients with PoPH and other forms of PAH; also recorded: consistent with those in other macitentan studies"}, {"measurement": "Trough plasma concentration, mean±SD", "setting": "[1]; OL macitentan 10 mg o.d. at least 4 weeks, PoPH patients, n=8", "value": "213.1 ± 86.4", "unit": "ng/mL"}, {"measurement": "Cmax", "setting": "[1]; human, plasma, oral, macitentan 10 mg o.d., PoPH patients, PKS 10 patients, read-out: Cmax, geometric mean (95% confidence interval)", "value": 369, "unit": "ng/mL"}, {"measurement": "Tmax", "setting": "[1]; human, plasma, oral, macitentan 10 mg o.d., PoPH patients, PKS 10 patients, read-out: tmax, median (range)", "value": 6.5, "unit": "h"}, {"measurement": "AUC(0-t)", "setting": "[1]; human, plasma, oral, one dosing interval, macitentan 10 mg o.d., PoPH patients, read-out: AUCT, geometric mean (95% confidence interval)", "value": 6660, "unit": "ng·h/mL"}, {"measurement": "Effect on vital signs, body weight or BMI", "setting": "patients with PoPH", "value": "no indication of any notable effect"}, {"measurement": "Change in PK of macitentan and its metabolites in hepatic impairment", "setting": "[2]", "value": "no clinically relevant change"}, {"measurement": "Toxicities associated with macitentan treatment", "setting": "[3]", "value": "associated with teratogenicity, dose-related anemia/decrease in hemoglobin concentration, and hepatotoxicity"}]}
